Experimental data as given in patent publication US10597388B2, “Pyridazinone herbicides” (FMC CORPORATION, priority 2014, dated 2020).

What was measured:
Assay in all cases: Test D controlled growth environment herbicide test, pre- and postemergence
Format in all cases: in vivo
kochia (Kochia scoparia) = test system: kochia (Kochia scoparia)
Outline: (§1)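 Rating is visual, 0–100 scale (100 = complete control), made against untreated plants 14–21 d after treatment in controlled growth conditions. Postemergence sprays went onto 1- to 4-leaf plants in peat medium; preemergence sprays onto silt loam after sowing; formulation included a surfactant.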

[1] = test system: windgrass (Apera spica-venti)
Outline: as §1

[2] = test system: foxtail, green (green foxtail, Setaria viridis)
Outline: as §1

[3] = test system: chickweed (common chickweed, Stellaria media)
Outline: as §1

[4] = test system: wheat, winter (winter wheat, Triticum aestivum)
Outline: as §1

[5] = test system: lambsquarters (Chenopodium album)
Outline: as §1

[6] = test system: ryegrass, Italian (Italian ryegrass, Lolium multiflorum)
Outline: as §1

[7] = test system: barley, winter (winter barley, Hordeum vulgare)
Outline: as §1

[8] = test system: deadnettle (henbit deadnettle, Lamium amplexicaule)
Outline: as §1

[9] = test system: blackgrass (Alopecurus myosuroides)
Outline: as §1

[10] = test system: galium (catchweed bedstraw, Galium aparine)
Outline: as §1

[11] = test system: pigweed (Amaranthus retroflexus)
Outline: as §1

[12] = test system: speedwell (bird's-eye speedwell, Veronica persica)
Outline: as §1

[13] = Postemergence, 31 g ai/ha, scale 0 to 100 (0 no effect, 100 complete control)
[14] = Postemergence, 125 g ai/ha, visual rating on scale 0 (no effect) to 100 (complete control), 14 to 21 d
[15] = Postemergence, 250 g ai/ha, scale 0 to 100 (0 no effect, 100 complete control)
[16] = Preemergence, 125 g ai/ha, scale 0 to 100 (0 no effect, 100 complete control)
[17] = Preemergence, 250 g ai/ha, scale 0 to 100 (0 no effect, 100 complete control)
[18] = postemergence, 62 g ai/ha, scale 0 to 100, 0 no effect, 100 complete control
[19] = Preemergence, 62 g ai/ha, scale 0 to 100 (0 no effect, 100 complete control)

## CCOC(=O)Oc1c(C)nn(C)c(=O)c1-c1c(C)sc2c(C)cc(C)cc12 [Compound 83]
Kochia (Kochia scoparia); [13]
  Kochia plant response rating: 70
Kochia (Kochia scoparia); [14]
  Plant response rating, Kochia: 80
Kochia (Kochia scoparia); [15]
  Plant response rating, Kochia: 90
Kochia (Kochia scoparia); Preemergence, 31 g ai/ha
  Plant response rating (scale of 0 to 100), Kochia: 0
Kochia (Kochia scoparia); Preemergence, 62 g ai/ha
  Plant response rating (scale of 0 to 100), Kochia: 0
Kochia (Kochia scoparia); [16]
  Plant response rating, Kochia: 30
Kochia (Kochia scoparia); [17]
  Plant response rating, Kochia: 50
Kochia (Kochia scoparia); [18]
  Plant response rating, Kochia: 75
[1]; [13]
  Windgrass plant response rating: 75
[1]; [14]
  Plant response rating, Windgrass: 90
[1]; [15]
  Plant response rating, Windgrass: 95
[1]; Preemergence, 31 g ai/ha
  Plant response rating (scale of 0 to 100), Windgrass: 15
[1]; Preemergence, 62 g ai/ha
  Plant response rating (scale of 0 to 100), Windgrass: 75
[1]; [16]
  Plant response rating, Windgrass: 90
[1]; [17]
  Plant response rating, Windgrass: 95
[1]; [18]
  Plant response rating, Windgrass: 85
[2]; [13]
  Foxtail, Green plant response rating: 75
[2]; [14]
  Plant response rating, Foxtail, Green: 90
[2]; [15]
  Plant response rating, Foxtail, Green: 100
[2]; Preemergence, 31 g ai/ha
  Plant response rating (scale of 0 to 100), Foxtail, Green: 15
[2]; Preemergence, 62 g ai/ha
  Plant response rating (scale of 0 to 100), Foxtail, Green: 50
[2]; [16]
  Plant response rating, Foxtail, Green: 100
[2]; [17]
  Plant response rating, Foxtail, Green: 100
[2]; [18]
  Plant response rating, Foxtail, Green: 90
[3]; [13]
  Chickweed plant response rating: 100
[3]; [14]
  Plant response rating, Chickweed: 100
[3]; [15]
  Plant response rating, Chickweed: 100
[3]; Preemergence, 31 g ai/ha
  Plant response rating (scale of 0 to 100), Chickweed: 100
[3]; Preemergence, 62 g ai/ha
  Plant response rating (scale of 0 to 100), Chickweed: 100
[3]; [16]
  Plant response rating, Chickweed: 100
[3]; [17]
  Plant response rating, Chickweed: 100
[3]; [18]
  Plant response rating, Chickweed: 100
[4]; [13]
  Wheat, Winter plant response rating: 0
[4]; [14]
  Plant response rating, Wheat, Winter: 5
[4]; [15]
  Plant response rating, Wheat, Winter: 10
[4]; Preemergence, 31 g ai/ha
  Plant response rating (scale of 0 to 100), Wheat, Winter: 0
[4]; Preemergence, 62 g ai/ha
  Plant response rating (scale of 0 to 100), Wheat, Winter: 0
[4]; [16]
  Plant response rating, Wheat, Winter: 5
[4]; [17]
  Plant response rating, Wheat, Winter: 25
[4]; [18]
  Plant response rating, Wheat, Winter: 0
[5]; [13]
  Lambsquarters plant response rating: 95
[5]; [14]
  Plant response rating, Lambsquarters: 100
[5]; [15]
  Plant response rating, Lambsquarters: 100
[5]; Preemergence, 31 g ai/ha
  Plant response rating (scale of 0 to 100), Lambsquarters: 95
[5]; Preemergence, 62 g ai/ha
  Plant response rating (scale of 0 to 100), Lambsquarters: 65
[5]; [16]
  Plant response rating, Lambsquarters: 100
[5]; [17]
  Plant response rating, Lambsquarters: 100
[5]; [18]
  Plant response rating, Lambsquarters: 100
[6]; [13]
  Ryegrass, Italian plant response rating: 80
[6]; [14]
  Plant response rating, Ryegrass, Italian: 90
[6]; [15]
  Plant response rating, Ryegrass, Italian: 90
[6]; Preemergence, 31 g ai/ha
  Plant response rating (scale of 0 to 100), Ryegrass, Italian: 40
[6]; Preemergence, 62 g ai/ha
  Plant response rating (scale of 0 to 100), Ryegrass, Italian: 75
[6]; [16]
  Plant response rating, Ryegrass, Italian: 90
[6]; [17]
  Plant response rating, Ryegrass, Italian: 100
[6]; [18]
  Plant response rating, Ryegrass, Italian: 85
[7]; [13]
  Barley, Winter plant response rating: 0
[7]; [14]
  Plant response rating, Barley, Winter: 0
[7]; [15]
  Plant response rating, Barley, Winter: 15
[7]; Preemergence, 31 g ai/ha
  Plant response rating (scale of 0 to 100), Barley, Winter: 0
[7]; [19]
  Plant response rating, Barley, Winter: 0
[7]; [16]
  Plant response rating, Barley, Winter: 0
[7]; [17]
  Plant response rating, Barley, Winter: 40
[7]; [18]
  Plant response rating, Barley, Winter: 0
[8]; [13]
  Deadnettle plant response rating: 15
[8]; [14]
  Plant response rating, Deadnettle: 55
[8]; [15]
  Plant response rating, Deadnettle: 60
[8]; Preemergence, 31 g ai/ha
  Plant response rating (scale of 0 to 100), Deadnettle: 0
[8]; Preemergence, 62 g ai/ha
  Plant response rating (scale of 0 to 100), Deadnettle: 0
[8]; [16]
  Plant response rating, Deadnettle: 15
[8]; [17]
  Plant response rating, Deadnettle: 100
[8]; [18]
  Plant response rating, Deadnettle: 25
[9]; [13]
  Blackgrass plant response rating: 65
[9]; [14]
  Plant response rating, Blackgrass: 75
[9]; [15]
  Plant response rating, Blackgrass: 80
[9]; Preemergence, 31 g ai/ha
  Plant response rating (scale of 0 to 100), Blackgrass: 20
[9]; [19]
  Plant response rating, Blackgrass: 60
[9]; [16]
  Plant response rating, Blackgrass: 70
[9]; [17]
  Plant response rating, Blackgrass: 85
[9]; [18]
  Plant response rating, Blackgrass: 70
[10]; [13]
  Galium plant response rating: 100
[10]; [14]
  Plant response rating, Galium: 100
[10]; [15]
  Plant response rating, Galium: 100
[10]; Preemergence, 31 g ai/ha
  Plant response rating (scale of 0 to 100), Galium: 0
[10]; Preemergence, 62 g ai/ha
  Plant response rating (scale of 0 to 100), Galium: 25
[10]; [16]
  Plant response rating, Galium: 40
[10]; [17]
  Plant response rating, Galium: 85
[10]; [18]
  Plant response rating, Galium: 100
[11]; [13]
  Pigweed plant response rating: 100
[11]; [14]
  Plant response rating, Pigweed: 100
[11]; [15]
  Plant response rating, Pigweed: 100
[11]; Preemergence, 31 g ai/ha
  Plant response rating (scale of 0 to 100), Pigweed: 100
[11]; Preemergence, 62 g ai/ha
  Plant response rating (scale of 0 to 100), Pigweed: 100
[11]; [16]
  Plant response rating, Pigweed: 100
[11]; [17]
  Plant response rating, Pigweed: 100
[11]; [18]
  Plant response rating, Pigweed: 100
[12]; [13]
  Speedwell plant response rating: 65
[12]; [14]
  Plant response rating, Speedwell: 75
[12]; [15]
  Plant response rating, Speedwell: 100
[12]; Preemergence, 31 g ai/ha
  Plant response rating (scale of 0 to 100), Speedwell: 70
[12]; Preemergence, 62 g ai/ha
  Plant response rating (scale of 0 to 100), Speedwell: 75
[12]; [16]
  Plant response rating, Speedwell: 100
[12]; [17]
  Plant response rating, Speedwell: 100
[12]; [18]
  Plant response rating, Speedwell: 70
